Experiments:
Assay type in all cases: in vivo
[1] = test system: Swiss albino mice and Guinea pigs; experiment: Plasma triglyceride and total cholesterol lowering activity in Swiss albino mice and Guinea pigs; conditions: species (Swiss albino mice or Guinea pigs) not given
Method: Male Swiss albino mice (SAM) and male Guinea pigs were obtained from NIN and housed in DRF animal house. All these animals were maintained under 12 hour light and dark cycle at 25±1° C. Animals were given standard laboratory chow (NIN, Hyderabad, India) and water, ad libitum. SAM of 20-25 g body weight range and Guinea pigs of 500-700 g body weight range were used (Oliver, P., Plancke, M. O., Marzin, D., Clavey, V., Sauzieres, J and Fruchart, J. C. Effects of fenofibrate, gemfibrozil and nicotinic acid on plasma lipoprotein levels in normal and hyperlipidemic mice. Atherosclerosis. 1988. 70: 107-114).
The test compounds were administered orally to Swiss albino mice at 0.3 to 30 mg/kg/day dose for 6 days. Control mice were treated with vehicle (0.25% Carboxymethylcellulose; dose 10 ml/kg). The test compounds were administered orally to Guinea pigs at 0.3 to 30 mg/kg/day dose for 6 days. Control animals were treated with vehicle (0.25% Carboxymethylcellulose; dose 5 ml/kg).
The blood samples were collected in fed state 1 hour after drug administration on 0 and 6 day of treatment. The blood was collected from the retro-orbital sinus through heparinised capillary in EDTA containing tubes. After centrifugation, plasma sample was separated for triglyceride and total cholesterol (Wieland, 0. Methods of Enzymatic analysis. Bergermeyer, H. O., Ed., 1963. 211-214; Trinder, P. Ann. Clin. Biochem. 1969. 6: 24-27). Measurement of plasma triglyceride, total cholesterol and HDL were done using commercial kits (Dr. Reddy's Diagnostic Division, Hyderabad, India).
(§1) Formulae for Calculation: • 1. Percent reduction in Blood sugar/triglycerides/total cholesterol/body weight were calculated according to the formula: • Percent reduction [formula] OC=Zero day control group value OT=Zero day treated group value TC=Test day control group value TT=Test day treated group value

C57BL/KsJ-db/db mice = experiment: Blood sugar and triglycerides lowering activity in db/db mice (genetic model)
Description: Mutation in colonies of laboratory animals and different sensitivities to dietary regimens have made the development of animal models with non-insulin dependent diabetes and hyperlipidemia associated with obesity and insulin resistance possible. Genetic models such as db/db and ob/ob (Diabetes, (1982) 31(1): 1-6) mice and zucker fa/fa rats have been developed by the various laboratories for understanding the pathophysiology of disease and testing the efficacy of new antidiabetic compounds (Diabetes, (1983) 32: 830-838; Annu. Rep. Sankyo Res. Lab. (1994). 46 : 1-57). The homozygous animals, C57 BL/KsJ-db/db mice developed by Jackson Laboratory, US, are obese, hyperglycemic, hyperinsulinemic and insulin resistant (J. Clin. Invest., (1990) 85: 962-967), whereas heterozygous are lean and normoglycemic. In db/db model, mouse progressively develops insulinopenia with age, a feature commonly observed in late stages of human type II diabetes when blood sugar levels are insufficiently controlled. The state of pancreas and its course vary according to the models. Since this model resembles that of type II diabetes mellitus, the compounds of the present invention were tested for blood sugar and triglycerides lowering activities.
Male C57BL/KsJ-db/db mice of 8 to 14 weeks age, having body weight range of 35 to 60 grams, bred at Dr. Reddy's Research Foundation (DRF)animal house, were used in the experiment. The mice were provided with standard feed (National Institute of Nutrition (NIN), Hyderabad, India) and acidified water, ad libitum. The animals having more than 350 mg/dl blood sugar were used for testing. The number of animals in each group was 4.
Test compounds were suspended on 0.25% carboxymethyl cellulose and administered to test group at a dose of 0.1 mg to 30 mg/kg through oral gavage daily for 6 days. The control group received vehicle (dose 10 ml/kg). On 6th day the blood samples were collected one hour after administration of test compounds/vehicle for assessing the biological activity.
The random blood sugar and triglyceride levels were measured by collecting blood (100 μl) through orbital sinus, using heparinised capillary in tubes containing EDTA which was centrifuged to obtain plasma. The plasma glucose and triglyceride levels were measured spectrometrically, by glucose oxidase and glycerol-3-PO4 oxidase/peroxidase enzyme (Dr. Reddy's Lab. Diagnostic Division Kits, Hyderabad, India) methods respectively.
The blood sugar and triglycerides lowering activities of the test compound was calculated according to the formula.
as §1

[2] = test system: hypercholesterolemic Sprague Dawley rats; experiment: Plasma triglyceride and cholesterol lowering activity in hypercholesterolemic rat models; conditions: 1 mg/kg orally for 3 days; for HDL (%) ↑: increase; for Total Cholesterol (%) ↓ / Triglyceride (%) ↓ / LDL (%) ↓ / VLDL (%) ↓: reduction; for LDL (%) ↓: LDL calculated from total cholesterol; for LDL (%) ↓ / VLDL (%) ↓: HDL and triglyceride; for VLDL (%) ↓: VLDL calculated from total cholesterol
Method: Male Sprague Dawley rats (NIN stock) were bred in DRF animal house. Animals were maintained under 12 hour light and dark cycle at 25±1° C. Rats of 180 -200 gram body weight range were used for the experiment. Animals were made hypercholesterolemic by feeding 2% cholesterol and 1% sodium cholate mixed with standard laboratory chow [National Institute of Nutrition (NIN), Hyderabad, India] for 6 days. Throughout the experimental period the animals were maintained on the same diet (Petit, D., Bonnefis, M. T., Rey, C and Infante, R. Effects of ciprofibrate on liver lipids and lipoprotein synthesis in normo- and hyperlipidemic rats. Atherosclerosis. 1988. 74:215-225).
The test compounds were administered orally at a dose 0.1 to 30 mg/kg/day for 3 days. Control group was treated with vehicle alone (0.25% Carboxymethylcellulose; dose 10 ml/kg).
The blood samples were collected in fed state 1 hour after drug administration on 0 and 3 day of compound treatment. The blood was collected from the retro-orbital sinus through heparinised capillary in EDTA containing tubes. After centrifugation, plasma sample was separated for total cholesterol, HDL and triglyceride estimations. Measurement of plasma triglyceride, total cholesterol and HDL were done using commercial kits (Dr. Reddy's Laboratory, Diagnostic Division, India). LDL and VLDL cholesterol were calculated from the data obtained for total cholesterol, HDL and triglyceride. The reduction of various parameters examined are calculated according to the formula.
as §1
2. LDL and VLDL cholesterol levels were calculated according to the formula: [formula] [formula]

[3] = test system: cholesterol fed Syrian Hamsters; experiment: Body weight reducing effect in cholesterol fed hamsters; conditions: 10 mg/kg/day orally for 15 days
Method: Male Syrian Hamsters were procured from NIN, Hyderabad, India. Animals were housed at DRF animal house under 12 hour light and dark cycle at 25±1° C. with free access to food and water. Animals were maintained with 1% cholesterol containing standard laboratory chow (NIN) from the day of treatment.
The test compounds were administered orally at 1 to 30 mg/kg/day dose for 15 days. Control group animals were treated with vehicle (Mill Q water, dose 10 ml/kg/day). Body weights were measured on every 3rd day.
as §1

[4] = 3 mg/kg oral gavage daily for 6 days
[5] = 10 mg/kg oral gavage daily for 6 days

CCOC(Cc1ccc(OCCN2CCOc3ccccc32)cc1)C(N)=O (racemic) [Example 33, 3-[4-[2-(2,3-Dihydro-1,4-benzoxazin-4-yl)ethoxy]phenyl]-2-ethoxypropanamide]
Triglyceride Lowering (%) ([1]; 3 mg/kg orally for 6 days): 55%

CCOC(Cc1ccc(OCCN2C(=O)COc3ccccc32)cc1)C(=O)O (racemic) [Example 41, 3-[4-[2-(3-Oxo-2H-1,4-benzoxazin-4-yl)ethoxy]phenyl]-2-ethoxypropanoic acid]
Triglyceride Lowering (%) ([1]; 10 mg/kg orally for 6 days): 54% | Reduction in Blood Glucose Level (%) (C57BL/KsJ-db/db mice; [4]): 53% | Triglyceride Lowering (%) (C57BL/KsJ-db/db mice; [4]): 27%

CCOC(Cc1ccc2cc(OCCN3CCSc4ccccc43)ccc2c1)C(=O)O (racemic) [Example 43, 3-[6-[2-(2,3-Dihydro-1,4-benzothiazin-4-yl)ethoxy]naphthyl]-2-ethoxypropanoic acid]
Triglyceride Lowering (%) ([1]; 3 mg/kg orally for 6 days): 49%

CCOC(Cc1ccc(OCCN2CCOc3ccccc32)cc1)C(=O)[O-].[Na+] (stereo not shown) [Example 27, 3-[4-[2-(2,3-Dihydro-1,4-benzoxazin-4-yl)ethoxy]phenyl]-2-ethoxypropanoic acid, sodium salt]
HDL (%) ↑ [2]: 37% | Total Cholesterol (%) ↓ [2]: 57% | Triglyceride (%) ↓ [2]: 43% | LDL (%) ↓ [2]: 58% | VLDL (%) ↓ [2]: 79% | Body weight Reduction (%) [3]: 12%

CCOC(Cc1ccc(OCCN2CCSc3ccccc32)cc1)C(=O)[O-].[Na+] (stereo not shown) [Example 30, 3-[4-[2-(2,3-Dihydro-1,4-benzothiazin-4-yl)ethoxy]phenyl]-2-ethoxypropanoic acid, sodium salt]
Body weight Reduction (%) [3]: 18%

CCOC(Cc1ccc2cc(OCCN3CCSc4ccccc43)ccc2c1)C(=O)[O-].[Na+] (stereo not shown) [Example 44]
HDL (%) ↑ [2]: 46% | Total Cholesterol (%) ↓ [2]: 42% | Triglyceride (%) ↓ [2]: 50% | LDL (%) ↓ [2]: 44% | VLDL (%) ↓ [2]: 53% | Reduction in Blood Glucose Level (%) (C57BL/KsJ-db/db mice; [5]): 47% | Triglyceride Lowering (%) (C57BL/KsJ-db/db mice; [5]): 74%

CCCCOC(Cc1ccc(OCCN2CCOc3ccccc32)cc1)C(=O)[O-].[Na+] (stereo not shown) [Example 50, 3-[4-[2-(2,3-Dihydro-1,4-benzoxazin-4-yl)ethoxy]phenyl]-2-butoxypropanoic acid, sodium salt]
Reduction in Blood Glucose Level (%) (C57BL/KsJ-db/db mice; [4]): 45% | Triglyceride Lowering (%) (C57BL/KsJ-db/db mice; [4]): 23%

CCOC(Cc1ccc(OCC2CN(Cc3ccccc3)c3ccccc3O2)cc1)C(=O)[O-].[Na+] (stereo not shown) [Example 63, 3-[4-(4-Benzyl-3,4-dihydro-2H-1,4-benzoxazin-2-yl)methoxyphenyl]-2-ethoxypropanoic acid, sodium salt]
Triglyceride Lowering (%) ([1]; 3 mg/kg orally for 6 days): 57%

Reference: patent US6846824B2, “Bicyclic compounds and their use in medicine; process for their preparation and pharmaceutical compositions containing them” (Dr. Reddy's Laboratories Ltd., priority 1997, dated 2005)
